Experiment [1] has as its system longitudinal muscle from the guinea pig ileum. Put plainly: Inhibition of stimulated contraction in isolated ileum. The settings on record: electrically stimulated guinea pig ileum muscle. The text has this:
These are detailed in Table II.

Experiment [2] has as its system coronary endothelial cells. Put plainly: Inhibition of adenosine utilization in cell culture. It counts as cell-based. The settings on record: 1 μM [3H] adenosine, 15 minutes; for inhibition at 5 µM / inhibition at 50 µM: Endothelial cell. As for the experimental part: In this assay, endothelial cells were incubated with 5 μM or 50 μM of the test compound together with 1 μM [^3H] adenosine for 15 minutes. Inhibition of adenosine utilization was determined by measuring the concentration of extracellular adenosine by scintillation counting following separation by thin layer chromatography (TLC).

The target in experiment [3] is T1, NBTI-specific adenosine transport site (UniProt O54698).
T1 sequence (O54698 1-457): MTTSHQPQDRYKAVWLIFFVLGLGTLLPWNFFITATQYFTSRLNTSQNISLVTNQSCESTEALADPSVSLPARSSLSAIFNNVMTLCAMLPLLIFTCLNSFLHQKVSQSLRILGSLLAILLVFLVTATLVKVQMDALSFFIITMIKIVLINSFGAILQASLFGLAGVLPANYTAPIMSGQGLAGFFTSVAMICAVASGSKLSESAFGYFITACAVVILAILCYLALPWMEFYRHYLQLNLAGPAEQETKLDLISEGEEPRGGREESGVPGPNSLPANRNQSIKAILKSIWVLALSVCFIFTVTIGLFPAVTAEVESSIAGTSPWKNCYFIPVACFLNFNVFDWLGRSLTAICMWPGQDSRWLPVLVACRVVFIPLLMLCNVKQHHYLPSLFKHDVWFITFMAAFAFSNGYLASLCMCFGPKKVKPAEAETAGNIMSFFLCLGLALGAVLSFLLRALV
Put plainly: [3H]-NBTI binding assay. The settings on record: read-out: ED50 (50% displacement of bound [3H]-NBTI); 0.5 mg neuronal membrane protein, 0.5 nM [3H]-NBTI, 30 minutes. As for the experimental part: Increasing concentrations of the test compounds were incubated for 30 minutes with 0.5 mg neuronal membrane protein together with 0.5 nM [^3 H]-NBTI in a Tris buffer (pH 7.4) at room temperature. The assays were quenched and membranes collected by rapid filtration. Filters were then solubilized and radioactivity determined by scintillation counting.

The test system of experiment [4] is platelet aggregation in human whole blood. Put plainly: Inhibition of platelet aggregation in human whole blood. As to conditions: 10 minutes at 37° C., 10 µM adenosine added, ADP (6-25 μM). It counts as cell-based. Here is the method: Whole blood was drawn from healthy donors and collected in 0.1 vol. of sodium citrate to prevent coagulation. Platelet aggregation was measured by the impedance technique using a Whole Blood Aggregometer. The test compounds were incubated in whole blood for 10 minutes at 37° C. and 10 µM adenosine was added 5 minutes before eliciting aggregation. Aggregation was induced by addition of ADP (6-25 μM) at the minimum concentration inducing full aggregation in untreated controls.

Structures can show the parent of a compound that is named as a salt.

A word on the IC50: it is the concentration that inhibits the measured activity by half. Low readings indicate higher potency, high ones lower potency. A word on the inhibition: it is the change of the read-out against control, counted positive when it falls. High values mean a strong effect, low ones a weak effect.

Consider `NC(=O)c1ncn([C@@H]2O[C@H](CCl)[C@@H](O)[C@H]2O)c1N` [Compound No. 26 (1-332), 5-amino-1-(5-chloro-5-deoxy-β-D-ribofuranosyl)imidazole-4-carboxamide], for which, in experiment [1] (Cavia porcellus), the half-maximal inhibitory concentration (IC50) amounted to 200 µM.

In experiment [1] (Cavia porcellus), `Nc1c(C(=O)NCc2cccc(I)c2)ncn1C1OC(CO)C(O)C1O` [Compound No. 44 (1-434), 5-Amino 1-β-D-ribofuranosyl-imidazole-4-N-[(3-iodophenyl)methyl]carboxamide] gave a 50% inhibitory concentration (IC50) of 20 µM.

For the molecule `Nc1c(C(=O)NCc2cccc(Cl)c2)ncn1[C@H]1O[C@H](CO)[C@@H](O)[C@H]1O` [Compound No. 24 (1-354), 5-Amino-1-α-D-ribofuranosylimidazole-4-N-[(3-chlorophenyl)methyl]carboxamide], in experiment [1], the IC50 was 400 µM.

In experiment [2] (5 μM), `Nc1c(C(=O)N2CCc3ccccc32)ncn1C1OC(CO)C(O)C1O` [Compound No. 48 (1-452), 5-Amino-1-β-D-ribofuranosyl-imidazole-4-N-indolinylcarboxamide] displayed an inhibition at 5 µM of 23 ± 3%. Also, in experiment [2] (50 μM), the inhibition at 50 µM is 25 ± 2%. The EC50 in experiment [3] worked out at 22 µM.

With `[N-]=[N+]=NCC1OC(n2cnc(C(=O)NCc3ccc(Cl)cc3)c2N)C(O)C1O` (stereo not drawn) [Compound No. 52 (1-467)], half-maximal inhibition in experiment [4] (Homo sapiens, Platelet, 10 min) (IC50) required 480 µM.

Turning to “5-Amino-4-[1-[4-(4-nitrophenyl)]piperazinocarbamoyl]-1-1-β-D-ribofurano sylimidazole [Compound No. 60 (1-508)]”, in experiment [3], the EC50 came out at 17 µM.

On to `Nc1c(C(=O)NCc2cccc(Cl)c2)ncn1C1OC(CO)C(O)C1O` [Compound No. 35 (1-355), 5-amino-1-β-D-ribofuranosyl-imidazole-4-N[(3-chlorophenyl)methyl]carboxamide], for which, in experiment [1] (Cavia porcellus), 60 µM corresponded to half-maximal inhibition (IC50).

Take `C[C@H]1O[C@@H](n2cnc(C(=O)NCc3ccc(Cl)cc3)c2N)[C@H](O)[C@@H]1O` [Compound No. 61 (1-509), 5-Amino-1-(5-deoxy-β-D-ribofuranosyl)imidazole-4N-[(4-chlorophenyl)methyl]carboxamide]: the “Inhibition of Adenosine Utilization (%)” value in experiment [2] (5 μM) is 37 ± 28%; in experiment [2] (50 μM), 72 ± 5%. Also, the EC50 in experiment [3] was 32 µM. The molecule also had an IC50 in experiment [4] of 171 µM.

In experiment [1] (Cavia porcellus), `Nc1c(C(=O)NCc2ccc(Cl)cc2Cl)ncn1C1OC(CO)C(O)C1O` [Compound No. 25 (1-360), 5-amino-1-β-D-ribofuranosylimidazole-4-N-[(2,4-dichlorophenyl)methyl]carboxamide] displayed an IC50 of 20 µM. In experiment [2] (5 μM), this molecule returned an inhibition at 5 µM of 21 ± 1%. In addition, the inhibition at 50 µM in experiment [2] (50 μM) worked out at 56 ± 2%. Also, the EC50 in experiment [3] stood at 72 µM.

With `Nc1c(C(=O)NCc2ccc(S(N)(=O)=O)cc2)ncn1[C@@H]1O[C@H](CO)[C@@H](O)[C@H]1O` [Compound No. 75 (1-577), 5-Amino-1-β-D-ribofuranosylimidazole-4-N-[(4-sulfamoylphenyl)methyl]carboxamide], the “Inhibition of Adenosine Utilization (%)” value was 8 ± 0% in experiment [2] (5 μM) and 30 ± 3% in experiment [2] (50 μM).

In the case of `Nc1c(C(=O)NCc2ccc([N+](=O)[O-])cc2)ncn1C1OC(CI)C(O)C1O` [46 (1-445), 5-Amino-1-(5-iodo-5-deoxy-β-D-ribofuranosyl)imidazole-4-N-[(4-nitrophenyl)methyl]carboxamide], in experiment [2] (5 μM), the inhibition at 5 µM was determined as 19 ± 4%. In experiment [2] (50 μM), this molecule returned an inhibition at 50 µM of 30 ± 9%. In addition, the EC50 in experiment [3] was determined as 8 µM.

For `COc1ccc(CNC(=O)c2ncn(C3OC(CO)C(O)C3O)c2N)cc1` [Compound No. 39 (1-390), 5-Amino-1-β-D-ribofuranosyl-imidazole-4-N-[p-methoxybenzyl]carboxamide], 500 µM corresponded to half-maximal inhibition in experiment [1] (Cavia porcellus) (IC50). Further, the inhibition at 5 µM in experiment [2] (5 μM) is 7 ± 4%. This molecule displayed an inhibition at 50 µM in experiment [2] (50 μM) of 29 ± 1%. For the same molecule, the EC50 in experiment [3] came out at 600 µM.

As for `Nc1c(C(=O)NCCCc2ccc([N+](=O)[O-])cc2)ncn1[C@@H]1O[C@H](CO)[C@@H](O)[C@H]1O` [Compound No. 73 (1-566)], the “Inhibition of Adenosine Utilization (%)” value in experiment [2] (5 μM) is reported as 16 ± 0%; in experiment [2] (50 μM), 33 ± 9%.

The molecule `Cc1ccc(CNC(=O)c2ncn(C3OC(CO)C(O)C3O)c2N)cc1` [Compound No. 30 (1-388), 5-amino-1-β-D-ribofuranosylimidazole-4-N-[(4-methylphenyl)methyl]carboxamide] returned an IC50 in experiment [1] (Cavia porcellus) of 20 µM. The molecule further registered an inhibition at 5 µM in experiment [2] (5 μM) of 21 ± 1%. In experiment [2] (50 μM), this molecule returned an inhibition at 50 µM of 49 ± 4%. For the same molecule, in experiment [3], the EC50 was determined as 225 µM.

With `CC(NC(=O)c1ncn(C2OC(CO)C(O)C2O)c1N)c1ccc([N+](=O)[O-])cc1` [50 (1-459), (S)-5-Amino-1-β-D-ribofuranosylimidazole-4-N-[(4-nitrophenyl)ethyl]carboxamide], the EC50 in experiment [3] was 28 µM.

`Nc1c(C(=O)NC2CC3CCC2C3)ncn1C1OC(CO)C(O)C1O` [Compound No. 45 (1-438), 5-Amino-1-β-D-ribofuranosylimidazole-4-N-(2-endo-norbornyl)carboxamide] displayed an IC50 in experiment [1] (Cavia porcellus) of 100 µM. In addition, the EC50 in experiment [3] was found to be 90 µM.

For the molecule `CSC[C@H]1O[C@@H](n2cnc(C(N)=O)c2N)[C@H](O)[C@@H]1O` [Compound No. 54 (1-483), 5-Amino-1-(5-deoxy-5-methylthio-β-D-ribofuranosyl)imidazole-4-carboxamide], in experiment [3], the EC50 was 28 µM.

The molecule `NC[C@H]1O[C@@H](n2cnc(C(=O)NCc3ccc([N+](=O)[O-])cc3)c2N)[C@H](O)[C@@H]1O` [Compound No. 72 (1-563)] returned a half-inhibitory concentration (IC50) in experiment [4] of 300 µM.

Consider `CN(C)c1ccc(CNC(=O)c2ncn([C@@H]3O[C@H](CO)[C@@H](O)[C@H]3O)c2N)cc1` [41 (1-396), 5-Amino-1-β-D-ribofuranosylimidazole-4-N(4-dimethylaminobenzyl)-carboxamide hydrochloride], for which inhibition in experiment [1] was half-maximal at 100 µM (IC50).

With `Nc1c(C(=O)Nc2ccc([N+](=O)[O-])cc2)ncn1C1OC(CO)C(O)C1O` [Compound No. 58 (1-489), 5-Amino-1-β-D-ribofuranosylimidazole-4-N-(4-nitrophenyl)carboxamide], in experiment [3], the EC50 worked out at 80 µM.

Turning to `[N-]=[N+]=NC[C@H]1O[C@@H](n2cnc(C(=O)NCc3ccc([N+](=O)[O-])cc3)c2N)[C@H](O)[C@@H]1O` [Compound No. 71 (1-562)], the “Inhibition of Adenosine Utilization (%)” value in experiment [2] (5 μM) is given as 10 ± 3%; in experiment [2] (50 μM) it was 31 ± 11%. Besides, in experiment [4], the IC50 worked out at 40 µM.

With `Nc1c(C(=O)NC[C@H](O)c2ccc(O)c(O)c2)ncn1[C@@H]1O[C@H](CO)[C@@H](O)[C@H]1O` [42 (1-431), (R)-5-Amino-1-β-D-ribofuranosylimidazole-4-N-[2-hydroxy-2-(3,4-dihydroxyphenyl)ethyl]carboxamide], the midpoint of inhibition in experiment [1], the IC50, lay at 6 µM. This lies in the single-digit micromolar range.

Regarding `Nc1c(C(=O)NCCc2ccc([N+](=O)[O-])cc2)ncn1C1OC(CO)C(O)C1O` [Compound No. 59 (1-506), 5-Amino-1-β-D-ribofuranosyl-imidazole-4-N→2-(4-nitrophenyl)ethyl carboxamide], the EC50 in experiment [3] was 2 µM. This molecule also displayed an IC50 in experiment [4] (Homo sapiens, Platelet, 10 min) of 70 µM.

The molecule `CC(NC(=O)c1ncn(C2OC(CO)C(O)C2O)c1N)c1ccc([N+](=O)[O-])cc1` [49 (1-453), (R)-5-Amino-1-β-D-ribofuranosylimidazole 4-N-[1-4-nitrophenyl)ethyl]carboxamide] showed an inhibition at 5 µM in experiment [2] (5 μM) of 30 ± 4%. Moreover, the inhibition at 50 µM in experiment [2] (50 μM) was 33 ± 8%. In addition, in experiment [3], the EC50 amounted to 7 µM.

For the origin of these results see US8993527B2, “Methods, compositions, and formulations for preventing or reducing adverse effects in a patient” (Pericor Therapeutics, Inc., priority 2005, dated 2015).
